Experimental data: patent publication US11746087B1, “C4-carboxylic acid-substituted tryptamine derivatives and methods of using” (priority 2022, dated 2023)
Several values for one entry are separate records, joined by “and”; a condition that tells them apart may be missing. Identical values can stand only once. Like-named read-outs stand apart in the source and are kept apart here.

Experiments:
5-HT1A receptor = molecular target: T1, 5-HT1A receptor (Homo sapiens, UniProt P08908); assay: cAMP-Glo assay in +5-HT1A vs −5-HT1A CHO-K1 cells; format: cell-based; details: cAMP assay with 4 mM forskolin
T1 construct: host or cells: CHO-K1 (co-expressing Ga15)
T1 sequence (P08908 1-422): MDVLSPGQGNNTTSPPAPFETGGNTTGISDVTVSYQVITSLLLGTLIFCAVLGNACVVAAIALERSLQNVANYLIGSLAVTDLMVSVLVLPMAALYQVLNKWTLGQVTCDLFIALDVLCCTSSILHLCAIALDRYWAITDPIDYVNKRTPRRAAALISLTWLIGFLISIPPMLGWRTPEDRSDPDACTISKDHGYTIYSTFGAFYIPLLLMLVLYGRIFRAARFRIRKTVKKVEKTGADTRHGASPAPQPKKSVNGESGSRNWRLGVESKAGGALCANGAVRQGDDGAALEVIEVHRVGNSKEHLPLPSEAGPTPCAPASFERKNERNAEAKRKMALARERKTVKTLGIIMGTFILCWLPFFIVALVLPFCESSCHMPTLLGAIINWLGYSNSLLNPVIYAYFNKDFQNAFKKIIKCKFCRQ

[1] = Mouse PK study (IV and PO), plasma parent compound and psilocin by LC-MS/MS; format: in vivo; details: for Plasma concentration of psilocin: BLQ <0.2 ng/mL; for F: C(I); for half-life: read-out: Apparent t1/2 (converted); for MRT inf: read-out: MRT0-inf
Text: Briefly, the procedure was as follows. […] 19, 2022.

[2] = C(I) in plasma, 3 mg/kg oral C(I), per animal, 3 mg/kg
[3] = C(I) in plasma, 10 mg/kg oral C(I), per animal, 10 mg/kg
[4] = male, C57Bl/6, mouse, plasma, intravenous, 1 mg/kg, 1 mg/kg i.v. C(I), Mean ± SD, read-out: Plasma concentration of C(I)
[5] = male, C57Bl/6, mouse, plasma, iv, 1 mg/kg, C(I) in plasma, 1 mg/kg i.v. C(I), Mean ± SD
[6] = male, C57Bl/6, mouse, plasma, iv, 1 mg/kg, C(I) in plasma, 1 mg/kg i.v. C(I), per animal
[7] = male, C57Bl/6, mouse, plasma, oral, 1 mg/kg, 1 mg/kg oral C(I), Mean ± SD, read-out: Plasma concentration of C(I)

SMILES: CN(C)CCc1c[nH]c2cccc(OC(=O)c3ccc(Br)cc3)c12 [C(I)]
- 5-HT1A receptor modulation, +5-HT1A vs −5-HT1A cultures (5-HT1A receptor): mild receptor modulation at higher ligand concentrations
- Plasma concentration of psilocin ([1]; 1 mg/kg i.v. C(I), 6 h, per animal): BLQ
- Plasma concentration of C(I) ([1]; 1 mg/kg i.v. C(I), 6 h, per animal, BLQ <0.5 ng/mL): BLQ
- Plasma concentration of psilocin ([1]; 1 mg/kg i.v. C(I), 8 h, per animal): BLQ
- Plasma concentration of C(I) ([1]; 1 mg/kg i.v. C(I), 8 h, per animal, BLQ <0.5 ng/mL): BLQ (2×) and No Peak
- Plasma concentration of C(I) ([1]; 1 mg/kg oral C(I), 1 h, per animal, BLQ <0.5 ng/mL): BLQ
- Plasma concentration of C(I) ([1]; 1 mg/kg oral C(I), 2 h, per animal, BLQ <0.5 ng/mL): BLQ
- Plasma concentration of C(I) ([1]; 1 mg/kg oral C(I), 4 h, per animal, BLQ <0.5 ng/mL): BLQ
- Plasma concentration of C(I) ([1]; 1 mg/kg oral C(I), 6 h, per animal, BLQ <0.5 ng/mL): BLQ
- Plasma concentration of psilocin ([1]; 1 mg/kg oral C(I), 8 h, per animal): BLQ
- Plasma concentration of C(I) ([1]; 1 mg/kg oral C(I), 8 h, per animal, BLQ <0.5 ng/mL): BLQ
- Plasma concentration of psilocin ([1]; 1 mg/kg oral C(I), 24 h, per animal): No Peak (2×) and BLQ
- Plasma concentration of C(I) ([1]; 1 mg/kg oral C(I), 24 h, per animal, BLQ <0.5 ng/mL): No Peak and No (2×)
- Plasma concentration of C(I) ([1]; 3 mg/kg oral C(I), 8 h, per animal, BLQ <0.5 ng/mL): BLQ
- Plasma concentration of psilocin ([1]; 3 mg/kg oral C(I), 24 h, per animal): No Peak
- Plasma concentration of C(I) ([1]; 3 mg/kg oral C(I), 24 h, per animal, BLQ <0.5 ng/mL): No Peak
- Plasma concentration of psilocin ([1]; 10 mg/kg oral C(I), 24 h, per animal): BLQ
- Plasma concentration of C(I) ([1]; 10 mg/kg oral C(I), 24 h, per animal, BLQ <0.5 ng/mL): No Peak
- AUC0-tlast/Dose ([1]; C(I) in plasma, 1 mg/kg i.v. C(I), mean (n = 2)): 57.6 (n = 2) h * kg * ng/mL/mg
- VSS ([1]; C(I) in plasma, 1 mg/kg i.v. C(I), per animal, 1 mg/kg): 12.65 L/kg
- AUC0-tlast/Dose ([1]; C(I) in plasma, 1 mg/kg oral C(I), Mean ± SD): 1.34 ± 1.02 kg·ng·h/mL/mg
- Tmax ([1]; C(I) in plasma, 1 mg/kg oral C(I), per animal): 30 min
- Cmax/Dose ([1]; C(I) in plasma, 1 mg/kg oral C(I), per animal, 1 mg/kg): 0.54 kg·ng/mL/mg
- Cmax/Dose [1, 2]: 0.650 kg·ng/mL/mg and 0.720 kg·ng/mL/mg and 0.780 kg·ng/mL/mg
- Tmax [1, 2]: 30 min
- Cmax [1, 3]: 7.10 ng/mL
- Cmax/Dose [1, 3]: 0.720 kg·ng/mL/mg and 0.710 kg·ng/mL/mg
- Tmax [1, 3]: 30 min
- F ([1]; 1 mg/kg oral C(I), Mean ± SD, AUC0-tlast used for p.o. group, might be under-estimated): 0.355 ± 0.272%
- F ([1]; 1 mg/kg oral C(I), Mean ± SD, if M37 (i.v.) is considered as an outlier): 2.30 ± 1.76%
- F ([1]; 1 mg/kg oral C(I), per animal, AUC0-tlast used for p.o. group, might be under-estimated, 1 mg/kg): 0.0450%
- F ([1]; 1 mg/kg oral C(I), per animal, if M37 (i.v.) is considered as an outlier, 1 mg/kg): 3.59% and 0.291% and 3.01%
- F ([1]; 3 mg/kg oral C(I), Mean ± SD, AUC0-tlast used for p.o. group, might be under-estimated): 0.491 ± 0.0292%
- F ([1]; 3 mg/kg oral C(I), Mean ± SD, if M37 (i.v.) is considered as an outlier): 3.18 ± 0.189%
- F ([1]; 3 mg/kg oral C(I), per animal, AUC0-tlast used for p.o. group, might be under-estimated, 3 mg/kg): 0.466%
- F ([1]; 3 mg/kg oral C(I), per animal, if M37 (i.v.) is considered as an outlier, 3 mg/kg): 3.02% and 3.13% and 3.39%
- F ([1]; 10 mg/kg oral C(I), Mean ± SD): 0.498 ± 0.113%
- F ([1]; 10 mg/kg oral C(I), Mean ± SD, if M37 (i.v.) is considered as an outlier): 3.22 ± 0.731%
- F ([1]; 10 mg/kg oral C(I), per animal, 10 mg/kg): 0.419%
- F ([1]; 10 mg/kg oral C(I), per animal, if M37 (i.v.) is considered as an outlier, 10 mg/kg): 2.71% and 2.90% and 4.06%
- concentration at 5 min ([1]; male, C57Bl/6, mouse, plasma, intravenous, 1 mg/kg, 1 mg/kg i.v. C(I), 5 min, Mean ± SD, read-out: Plasma concentration of C(I)): 944 ± 1450 ng/mL
- concentration at 0.25 h [1, 4]: 452 ± 691 ng/mL
- concentration at 0.5 h [1, 4]: 137 ± 183 ng/mL
- concentration at 1 h ([1]; male, C57Bl/6, mouse, plasma, intravenous, 1 mg/kg, 1 mg/kg i.v. C(I), 1 h, Mean ± SD, read-out: Plasma concentration of C(I)): 53.2 ± 64.8 ng/mL
- concentration at 2 h ([1]; male, C57Bl/6, mouse, plasma, intravenous, 1 mg/kg, 1 mg/kg i.v. C(I), 2 h, Mean ± SD, read-out: Plasma concentration of C(I)): 19.9 ± 28.5 ng/mL
- concentration at 4 h ([1]; male, C57Bl/6, mouse, plasma, intravenous, 1 mg/kg, 1 mg/kg i.v. C(I), 4 h, Mean ± SD, read-out: Plasma concentration of C(I)): 3.46 ± 4.7 ng/mL
- concentration at 6 h ([1]; male, C57Bl/6, mouse, plasma, intravenous, 1 mg/kg, 1 mg/kg i.v. C(I), 6 h, mean (n = 2), read-out: Plasma concentration of C(I)): 2.51 ng/mL
- clearance [1, 5]: 198 mL/min/kg
- AUC(0-inf) ([1]; male, C57Bl/6, mouse, plasma, iv, 1 mg/kg, C(I) in plasma, 1 mg/kg i.v. C(I), Mean ± SD, read-out: AUC0-inf): 377 ± 552 ng·h/mL
- AUC(0-t) ([1]; male, C57Bl/6, mouse, plasma, iv, 1 mg/kg, C(I) in plasma, 1 mg/kg i.v. C(I), Mean ± SD, read-out: AUC0-tlast): 374 ± 548 ng·h/mL
- half-life [1, 5]: 59.8 ± 18.5 min
- C0 ([1]; male, C57Bl/6, mouse, plasma, iv, 1 mg/kg, C(I) in plasma, 1 mg/kg i.v. C(I), Mean ± SD, read-out: C0): 1360 ± 2100 ng/mL
- MRT inf [1, 5]: 40.1 ± 6.36 min
- Vd ([1]; male, C57Bl/6, mouse, plasma, iv, 1 mg/kg, C(I) in plasma, 1 mg/kg i.v. C(I), Mean ± SD, read-out: VSS): 8.44 ± 6.83 L/kg
- half-life [1, 6]: 68.4 min
- MRT inf [1, 6]: 34.1 min
- concentration at 0.25 h [1, 7]: 0.646 ± 0.251 ng/mL
- concentration at 0.5 h [1, 7]: 0.877 ± 0.376 ng/mL
- concentration at 1 h ([1]; male, C57Bl/6, mouse, plasma, oral, 1 mg/kg, 1 mg/kg oral C(I), 1 h, mean (n = 2), read-out: Plasma concentration of C(I)): 0.898 ng/mL
- concentration at 1 h ([1]; male, C57Bl/6, mouse, plasma, oral, 1 mg/kg, 1 mg/kg oral C(I), 1 h, per animal, BLQ <0.5 ng/mL, read-out: Plasma concentration of C(I)): 0.775 ng/mL
- concentration at 2 h ([1]; male, C57Bl/6, mouse, plasma, oral, 1 mg/kg, 1 mg/kg oral C(I), 2 h, mean (n = 2), read-out: Plasma concentration of C(I)): 0.537 ng/mL
- concentration at 2 h ([1]; male, C57Bl/6, mouse, plasma, oral, 1 mg/kg, 1 mg/kg oral C(I), 2 h, per animal, BLQ <0.5 ng/mL, read-out: Plasma concentration of C(I)): 0.474 ng/mL
